Measurements as given in US7776862B2, “Pyridyl and phenyl substituted piperazine-piperidines with CXCR3 antagonist activity” (Schering Corporation, priority 2005, dated 2010).
pIC50: −log10 of the molar value.

Target: T1, human CXCR3 (N-delta 4) (Homo sapiens, UniProt P49682)
T1 construct: CD8 leader; Flag tag; expressed in transfected cells; membranes used
T1 sequence (P49682 5-368 limits assumed): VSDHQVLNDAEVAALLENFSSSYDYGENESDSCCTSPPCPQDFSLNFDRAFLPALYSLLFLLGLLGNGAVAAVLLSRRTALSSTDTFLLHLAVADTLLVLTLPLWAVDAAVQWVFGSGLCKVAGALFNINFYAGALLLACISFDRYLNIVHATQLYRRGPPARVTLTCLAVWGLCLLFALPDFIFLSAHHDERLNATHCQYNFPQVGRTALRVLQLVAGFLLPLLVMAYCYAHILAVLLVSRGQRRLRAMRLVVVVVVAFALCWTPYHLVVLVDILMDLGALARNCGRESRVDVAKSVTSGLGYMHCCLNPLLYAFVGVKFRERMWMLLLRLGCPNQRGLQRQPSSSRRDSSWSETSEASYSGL
Assay: Human CXCR3 (N-delta 4) scintillation proximity assay (SPA), [125I] IP-10 binding
Details: IC50 rating; Ba/F3-hCXCR3 (N-delta 4) membranes, 25 pM [125I] IP-10
Text: The inventive compounds can readily be evaluated to determine activity at the CXCR3 receptors by known methods, such as, for example, development of a human CXCR3 (N-delta 4) Binding Assay.
Cloning and expression of human CXCR3 (N-delta 4):
The DNA encoding human CXCR3 was cloned by PCR using human genomic DNA (Promega, Madison, Wis.) as a template. The PCR primers were designed based on the published sequence of human orphan receptor GPR9 (1) with incorporated restriction sites, a Kozak consensus sequence, CD8 leader and Flag tag. The PCR product was subcloned into the mammalian expression vector pME18Sneo, a derivative of the SR-alpha expression vector (designated as pME18Sneo-hCXCR3 (N-delta 4).
IL-3-dependent mouse pro-B cells Ba/F3 were transfected by electroporation in 0.4 ml Dulbecco's PBS containing 4×10^6 cells with 20 μg of pME18Sneo-hCXCR3 (N-delta 4) plasmid DNA. Cells were pulsed at 400 Volts, 100 OHMs, 960 μFd. The transfected cells were under selection with 1 mg/ml G418 (Life Technologies, Gaithersburg, Md.). […] IP-10 (NEN Life Science Products, Boston, Mass.).
Preparation of Ba/F3-hCXCR3 (N-delta 4) membranes:
Ba/F3 cells expressing human CXCR3 (N-delta 4) were pelleted and resuspended in the lysis buffer containing 10 mM HEPES, pH 7.5 and Complete® protease inhibitors (1 tablet per 100 ml) (Boehringer Mannheim, Indianapolis, Ind.) at a cell density of 20×10^6 cells per ml. […] Large cellular debris was removed by centrifugation at 1,000×g. Cell membrane in the supernatant was sedimented at 100,000×g. The membrane was resuspended in the lysis buffer supplemented with 10% sucrose and stored at −80° C. Total protein concentration of the membrane was determined by BCA method from Pierce (Rockford, Ill.).
Human CXCR3 (N-delta 4) scintillation proximity assay (SPA):
The beads were spun down, washed once, resuspended in the binding buffer and transferred to a 96-well Isoplate (Wallac, Gaithersburg, Md.). […] IP-10 with tested compounds in a series of titration were added to start the reaction.

pIC50	Compound
7.00 to 7.60	C[C@H]1CN(c2ncc(C(=O)NCc3ccc(Cl)c(Cl)c3)cc2Cl)CCN1C1CCN(C(=O)c2ccc(C#N)cc2)CC1 [compound 319]
7.00 to 7.60	O=C(NCc1ccc(F)c(Cl)c1)c1cnc(N2CCN(C3CCN(Cc4ccc(Cl)cc4)CC3)CC2)c(Cl)c1 [compound 150]
7.00 to 7.60	CCOCc1cnc(N2CCN(C3CCN(Cc4ccc(Cl)cc4F)CC3)[C@@H](CC)C2)c(Cl)c1 [compound 424]
< 7.00	O=C(NC1CCCC1)c1cnc(N2CCN(C3CCN(Cc4ccc(Cl)cc4)CC3)CC2)c(Br)c1 [compound 189]
7.00 to 7.60	O=C(NCc1ccc(Cl)cc1F)c1cnc(N2CCN(C3CCN(Cc4ccc(F)cc4)CC3)CC2)c(Cl)c1 [compound 134]
< 7.00	C[C@H]1CN(c2ncc(C(=O)N3CCC3)cc2Cl)CCN1C1CCN(Cc2ccc(Cl)cc2)CC1 [compound 348]
> 7.60	CNC(=O)c1cnc(N2CCN(C3CCN([C@H](C)c4ccc(Cl)cc4)CC3)[C@@H](C)C2)c(Cl)c1 [compound 232]
< 7.00	COc1ccc(CN2CCC(N3CCN(c4ncc(C(=O)NCCOc5ccccc5)cc4Cl)CC3)CC2)cc1 [compound 331]
> 7.60	CCNC(=O)c1cnc(N2C[C@H](C)N(C3CCN(Cc4ccc(Cl)cc4F)CC3)C[C@H]2C)c(Cl)c1 [compound 263]
> 7.60	CC[C@H]1CN(c2ncc(CNC(=O)NC)cc2Cl)CCN1C1CCN(Cc2ccc(Cl)cc2F)CC1 [compound 377]
7.00 to 7.60	O=C(NCc1ccc(Cl)c(Cl)c1)c1cnc(N2CCN(C3CCN(Cc4ccc(F)c(F)c4)CC3)CC2)c(Cl)c1 [compound 147]
< 7.00	O=C(NCc1ccc(C(F)(F)F)cc1)c1cnc(N2CCN(C3CCN(Cc4ccc(Cl)cc4)CC3)CC2)c(Cl)c1 [compound 85]
7.00 to 7.60	CC[C@H]1CN(c2ncc(CN(C(=O)N(C)C)C3CC3)cc2Cl)CCN1C1CCN(Cc2ccc(Cl)cc2F)CC1 [compound 432]
7.00 to 7.60	CNC(=O)c1cnc(N2CCN(C3CCN(C(=N)c4ccc(Cl)cc4)CC3)[C@@H](C)C2)c(Cl)c1 [compound 292]
7.00 to 7.60	N#Cc1ccc(CN2CCC(N3CCN(c4ncc(C(=O)NCc5ccc(Cl)cc5F)cc4Cl)CC3)CC2)cc1 [compound 120]
7.00 to 7.60	Cc1cc(NC(=O)c2cnc(N3CCN(C4CCN(Cc5ccc(Cl)cc5)CC4)[C@@H](C)C3)c(Cl)c2)no1 [compound 310]
7.00 to 7.60	C[C@H]1CN(C2CCN(Cc3ccc(Cl)cc3)CC2)CCN1c1ncc(C(=O)NCc2ccc(Cl)c(Cl)c2)cc1Cl [compound 175]
< 7.00	O=C(NCc1ccc(Cl)cc1Cl)c1cnc(N2CCN(C3CCN(Cc4ccc(Br)cc4F)CC3)CC2)c(Cl)c1 [compound 26]
7.00 to 7.60	O=C(NCc1ccc(F)c(Cl)c1)c1cnc(N2CCN(C3CCN(Cc4ccc(F)cc4F)CC3)CC2)c(Cl)c1 [compound 102]
7.00 to 7.60	COc1ccc(CN2CCC(N3CCN(c4ncc(C(=O)NCc5ccc(Cl)cc5)cc4Cl)CC3)CC2)cc1 [compound 103]
< 7.00	N#Cc1ccc(C(=O)N2CCC(N3CCN(c4ncc(C(=O)NCc5ccc(Cl)cc5F)cc4Cl)CC3)CC2)cc1 [compound 81]
< 7.00	O=C(NCc1cc(Cl)cc(Cl)c1)c1cnc(N2CCN(C3CCN(Cc4ccc(F)c(F)c4)CC3)CC2)c(Cl)c1 [compound 78]
< 7.00	CC1(C)C2CCC(CNC(=O)c3cnc(N4CCN(C5CCN(Cc6ccc(Cl)cc6)CC5)CC4)c(Br)c3)C1C2 (stereo not shown) [compound 9]
> 7.60	CCNCc1cnc(N2CCN(C3CCN(Cc4ccc(Cl)cc4F)CC3)[C@@H](CC)C2)c(Cl)c1 [compound 406]
7.00 to 7.60	CC[C@H]1CN(c2ncc(CNC(=O)N(C)C)cc2Cl)CCN1C1CCN(Cc2ccc(Cl)cc2F)CC1 [compound 410]
7.00 to 7.60	CC[C@H]1CN(c2ncc(CNC(=O)Nc3c(C)noc3C)cc2Cl)CCN1C1CCN(Cc2ccc(Cl)cc2F)CC1 [compound 417]
> 7.60	CC[C@H]1CN(c2ncc(CNS(C)(=O)=O)cc2Cl)CCN1C1CCN(Cc2ccc(Cl)cc2F)CC1 [compound 380]
< 7.00	O=C(NCc1cccc(Cl)c1)c1cnc(N2CCN(C3CCN(Cc4ccc(Br)cc4)CC3)CC2)c(Cl)c1 [compound 43]

pIC50	Compound
> 7.60	CCNC(=O)c1cnc(N2CCN(C3CCN(C(=O)c4ccc(-n5cccc5)cc4)CC3)[C@@H](CC)C2)c(Cl)c1 [compound 262]
> 7.60	CC[C@H]1CN(c2ncc(COC(=O)Nc3c(C)noc3C)cc2Cl)CCN1C1CCN(Cc2ccc(Cl)cc2F)CC1 [compound 402]
< 7.00	O=C(NCc1ccc(C(F)(F)F)cc1)c1cnc(N2CCN(C3CCN(Cc4ccc(F)cc4)CC3)CC2)c(Cl)c1 [compound 66]
7.00 to 7.60	O=C(NCc1ccc(Cl)cc1F)c1cnc(N2CCN(C3CCN(Cc4ccc(F)c(F)c4)CC3)CC2)c(Cl)c1 [compound 140]
7.00 to 7.60	O=C(NCc1cccc(F)c1)c1cnc(N2CCN(C3CCN(Cc4ccc([N+](=O)[O-])cc4)CC3)CC2)c(Cl)c1 [compound 94]
> 7.60	CCNC(=O)c1cnc(N2CCN(C3CCN(Cc4ccc(Cl)cc4)CC3(C)C)CC2)c(Cl)c1 (stereo not shown) [compound 163]
7.00 to 7.60	N#Cc1ccc(C(=O)N2CCC(N3CCN(c4ncc(C(=O)NCc5ccc(Cl)cc5)cc4Cl)CC3)CC2)cc1 [compound 101]
< 7.00	CC1(N2CCN(c3ncc(C(=O)NCc4ccc(F)c(F)c4)cc3Cl)CC2)CCN(Cc2ccc(Cl)cc2)CC1 [compound 207]
< 7.00	O=C(NCc1cccc(F)c1)c1cnc(N2CCN(C3CCN(Cc4ccc(Br)cc4F)CC3)CC2)c(Cl)c1 [compound 14]
< 7.00	CC(c1ccc(Cl)cc1)N1CCC(N2CCN(c3ncc(C(=O)NCc4ccc(F)c(F)c4)cc3Cl)CC2)CC1 (stereo not shown) [compound 46]
> 7.60	CC[C@H]1CN(c2ncc(C(N)=NO)cc2Cl)CCN1C1CCN(Cc2ccc(Cl)cc2F)CC1 [compound 404]
< 7.00	CC(C)NC(=O)c1cnc(N2CCN(C3CCN(Cc4ccc(Cl)cc4)CC3)CC2)c(Cl)c1 [compound 180]
> 7.60	CCNC(=O)OCc1cnc(N2CCN(C3CCN(Cc4ccc(Cl)cc4F)CC3)[C@@H](CC)C2)c(Cl)c1 [compound 382]
> 7.60	CC[C@H]1CN(c2ncc(CNC(=O)NC3CCCCC3)cc2Cl)CCN1C1CCN(Cc2ccc(Cl)cc2F)CC1 [compound 390]
< 7.00	O=C(NCc1ccccc1Cl)c1cnc(N2CCN(C3CCN(Cc4ccc(Cl)cc4)CC3)CC2)c(Cl)c1 [compound 166]
< 7.00	CC[C@H]1CN(c2ncc(C(=O)OC)cc2Cl)CCN1C1CCN(C(=O)c2ccc(-n3cccc3)cc2)CC1 [compound 457]
7.00 to 7.60	COc1ccc(CN2CCC(N3CCN(c4ncc(C(=O)NCc5ccc(Br)cc5)cc4Cl)CC3)CC2)cc1 [compound 137]
< 7.00	O=C(NCc1ccc(Cl)cc1)c1cnc(N2CCN(C3CCN(Cc4ccc(Cl)cc4Cl)CC3)CC2)c(Cl)c1 [compound 13]
> 7.60	CC[C@H]1CN(c2ncc(CNC(=O)NCC(F)(F)F)cc2Cl)CCN1C1CCN(C(=O)c2ccc(Br)cc2)CC1 [compound 396]
7.00 to 7.60	N#Cc1ccc(CN2CCC(N3CCN(c4ncc(C(=O)NCCOc5ccccc5)cc4Br)CC3)CC2)cc1 [compound 314]
> 7.60	CCNC(=O)c1cnc(N2CCN(C3CCN(Cc4ccc(Cl)cc4F)CC3)[C@@H](C)C2)c(Cl)c1 [compound 251]
7.00 to 7.60	CC1(N2CCN(c3ncc(C(=O)NCc4ccc(Cl)c(Cl)c4)cc3Cl)CC2)CCN(Cc2ccc(Cl)cc2)CC1 [compound 206]
< 7.00	COc1ccc(CN2CCC(N3CCN(c4ncc(C(=O)NCc5cccc(Cl)c5)cc4Cl)CC3)CC2)cc1 [compound 54]
< 7.00	O=C(NCc1cc(Cl)cc(Cl)c1)c1cnc(N2CCN(C3CCN(Cc4ccc(F)cc4F)CC3)CC2)c(Cl)c1 [compound 12]
> 7.60	C[C@H]1CN(c2ncc(C(=O)NCc3ccc(F)c(F)c3)cc2Br)CCN1C1CCN(Cc2ccc(Cl)cc2)CC1 [compound 222]
7.00 to 7.60	O=C(NCc1ccc(F)c(F)c1)c1cnc(N2CCN(C3CCN(Cc4ccc(Cl)c(F)c4)CC3)CC2)c(Cl)c1 [compound 121]
7.00 to 7.60	O=C(NCc1ccc(F)cc1)c1cnc(N2CCN(C3CCN(Cc4ccc([N+](=O)[O-])cc4)CC3)CC2)c(Cl)c1 [compound 272]
